Among the test systems are P388/ADR leukemia; HOP-18 NSCLC; M19-MEL melanoma; P388 leukemia; DMS 114 small cell lung; DLD-1 colon; XF 498 CNS; SN12K1 renal; LXFL 529 NSCLC.
What all share (assay): NCI tumour cell line growth inhibition, 48 h

The record followed here is PubChem BioAssay (NCI).

SMILES strings stand for the structures. Where “and” joins values, the source holds several entries; their conditions need not be identical. Identical values can stand only once.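 Briefly, cells in 96-well plates were exposed to five compound concentrations for 48 h, and endpoints were estimated by linear interpolation. The concentration for 50% growth inhibition is given as GI50. TGI is the concentration that stops growth completely.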

In the case of `COc1cccc2c1C(=O)c1c(O)c3c(c(O)c1C2=O)CC(O)(C(C)=O)CC3O` (centres undefined), the TGI with P388/ADR leukemia turned out to be 9.23 µM; with HOP-18 NSCLC, 41.5 µM; in the test with M19-MEL melanoma it was 15.7 µM; in the test with P388 leukemia, 9.69 µM; in the test on DMS 114 small cell lung, 24.1 µM; in the test on DLD-1 colon, 40.9 µM. Further, the TGI in the test on XF 498 CNS was determined as 1.31 µM; in the test on SN12K1 renal, 10.5 µM.
Consider `Nc1ccn(CCCC(c2ccccc2)P(=O)(O)O)c(=O)n1` (centres undefined), for which the TGI in the test with LXFL 529 NSCLC, in the test with HOP-18 NSCLC, in the test on M19-MEL melanoma, in the test on DMS 114 small cell lung and in the test with DLD-1 colon was over 100 µM in each case.
As to `O=C1C(=Cc2ccc([N+](=O)[O-])o2)C(=O)N(CCc2ccccc2)S(=O)(=O)N1CCc1ccccc1`, the TGI in the test with LXFL 529 NSCLC was 30.6 µM; in the test with HOP-18 NSCLC, over 100 µM; with M19-MEL melanoma, 31.7 µM; in the test with DLD-1 colon, 34.1 µM; with XF 498 CNS, 34.9 µM.
For `C[C@]12CCC(=O)C=C1CC[C@@H]1C2CC[C@@]2(C)C1CC[C@@H]2OC(=O)C12OC1CCC2=O` (some centres undefined), the TGI amounted to 28 µM in the test with LXFL 529 NSCLC; 31.7 µM in the test on HOP-18 NSCLC; 30.3 µM with M19-MEL melanoma; 34.3 µM with DMS 114 small cell lung; 27.9 µM in the test with XF 498 CNS.
As for `O=C1NC2OC(CO)C(O)C(O)C2O1` (centres undefined), the TGI with LXFL 529 NSCLC, in the test on HOP-18 NSCLC, with M19-MEL melanoma, in the test on DMS 114 small cell lung and with DLD-1 colon was over 100 µM in each case.
Take `COc1ccc(OC)c(-c2cc(=O)c3cc4c(cc3[nH]2)OCO4)c1`: the TGI was 49.6 µM with LXFL 529 NSCLC; over 100 µM with HOP-18 NSCLC; over 100 µM in the test on M19-MEL melanoma; 13.9 µM with DMS 114 small cell lung; over 100 µM in the test on DLD-1 colon; 35.9 µM with XF 498 CNS.
For `CCOC(=O)C1=C(O)c2ccc(OC)cc2C(=O)C1=O`, the TGI was 66.5 µM with HOP-18 NSCLC, 44.4 µM with M19-MEL melanoma, over 100 µM in the test with DMS 114 small cell lung and over 100 µM with DLD-1 colon.
`NC(CS)C(=O)NCCNc1ccc(NCCNC(=O)C(N)CS)c2c1C(=O)c1c(O)ccc(O)c1C2=O` (centres undefined): the GI50 in the test with LXFL 529 NSCLC was 0.0673 µM; in the test with HOP-18 NSCLC, 0.0307 µM; with M19-MEL melanoma it was 0.138 µM; with DLD-1 colon it was 0.0638 µM. Besides, the TGI is 0.927 µM and 0.631 µM in the test on LXFL 529 NSCLC; 3.9 µM and 0.484 µM in the test with HOP-18 NSCLC; 0.863 µM and 1.01 µM in the test on M19-MEL melanoma; 1.03 µM and 0.762 µM in the test with DLD-1 colon; 0.463 µM in the test on XF 498 CNS.
In the case of `O=P(Nc1cccc(Cl)c1)(Oc1ccccc1)N(CCCl)CCCl` (centres undefined), the TGI in the test with LXFL 529 NSCLC is 24.6 µM; in the test on HOP-18 NSCLC, 47.2 µM; in the test with M19-MEL melanoma it was 32.8 µM; in the test with DMS 114 small cell lung, 26.1 µM; with DLD-1 colon, 30.5 µM.
On to `Brc1ccc(C[N+]23CN4CN(CN(C4)C2)C3)cc1`, for which the TGI in the test on M19-MEL melanoma was over 100 µM; in the test with DMS 114 small cell lung it was 51.1 µM.
As to `O=C(CSc1nnc(-c2ccc(N=Cc3ccc(Cl)cc3)cc2)o1)Nc1cccc([N+](=O)[O-])c1`, the TGI in the test on LXFL 529 NSCLC, with HOP-18 NSCLC, in the test on M19-MEL melanoma and with DMS 114 small cell lung was over 100 µM throughout.
In the case of `COc1ccc(/C=C(\C2=NC(=O)CS2)c2nc3ccccc3[nH]2)cc1`, the TGI was over 100 µM in the test with LXFL 529 NSCLC; over 100 µM in the test with M19-MEL melanoma; over 100 µM with DMS 114 small cell lung; over 100 µM in the test with DLD-1 colon; 81.5 µM in the test on XF 498 CNS.
Consider `COc1ccc(N2C(=O)C3C=CC(n4[nH]c(=O)n(Cc5ccccc5)c4=O)CC3C2=O)cc1` (centres undefined), for which the TGI with LXFL 529 NSCLC, with HOP-18 NSCLC, with M19-MEL melanoma, in the test on DMS 114 small cell lung, in the test on DLD-1 colon and in the test with XF 498 CNS was over 100 µM each time.
